Assay results taken from US5292887A, “Substituted imidazole derivatives and their preparation and use” (priority 1988, dated 1994).

Key:
α2-adrenoceptor [1] = molecular target: T1, α2-adrenoceptor (Rattus norvegicus, UniProt P22909); experiment: Duration of the α2-blocking action (time for antagonism of detomidine mydriasis to fall by half, oral); type: in vivo; conditions: oral at equipotent doses, time taken for antagonism of 0,1 mg/kg detomidine mydriasis to fall by half
T1 construct: In anaesthetized rat, a standard dose of detomidine was administered intravenously; from tissue; host or cells: whole anaesthetized rat (pupil response, in vivo)
T1 sequence (P22909 1-465): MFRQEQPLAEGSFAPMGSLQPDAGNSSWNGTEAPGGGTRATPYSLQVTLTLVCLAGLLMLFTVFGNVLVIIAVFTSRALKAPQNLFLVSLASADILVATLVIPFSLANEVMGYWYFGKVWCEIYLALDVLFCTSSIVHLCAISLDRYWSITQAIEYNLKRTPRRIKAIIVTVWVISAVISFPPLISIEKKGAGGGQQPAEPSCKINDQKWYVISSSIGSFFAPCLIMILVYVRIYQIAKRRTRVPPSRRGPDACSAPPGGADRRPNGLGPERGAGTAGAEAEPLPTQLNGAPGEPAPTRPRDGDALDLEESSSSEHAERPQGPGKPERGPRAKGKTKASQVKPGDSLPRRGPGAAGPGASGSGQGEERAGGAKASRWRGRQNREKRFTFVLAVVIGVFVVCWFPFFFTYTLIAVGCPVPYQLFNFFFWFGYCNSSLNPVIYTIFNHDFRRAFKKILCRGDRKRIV
Method: It is known that in the rat α2 -agonists induce dilatation of the pupil (mydriasis) which effect is transmitted via postsynaptic α2 -receptors. In anaesthetized rat, a standard dose of detomidine was administered intravenously. Thereafter increasing doses of the studied antagonist were injected intravenously and the reversal of detomidine-induced mydriasis was followed. The ED50 value of the antagonist, i.e. the dose producing a 50 per cent reversal, was determined.
The duration of the α2 -blocking action of the compounds was determined as follows: the antagonists were administered orally at eqvipotent doses to groups of 4 rats 1, 2, 4, 7 or 16 hours before induction of anaesthesia and challenge with cumulative i.v. dosing of detomidine. By calculating the percentage antagonism of the mydriatic effect of 0,1 mg/kg detomidine for each pretreatment group, a time-effect relationship was established. This in turn permitted the measurement of the time taken for the antagonist effect to fall by half.

α2-adrenoceptor [2] = molecular target: T1, α2-adrenoceptor; experiment: Reversal of detomidine-induced mydriasis in anaesthetized rat (α2-adrenoceptor antagonism); type: in vivo; conditions: dose producing 50 per cent reversal of detomidine-induced mydriasis; for ED50: iv
α1-adrenoceptor = molecular target: T2, α1-adrenoceptor (Rattus norvegicus, UniProt P43140); experiment: α1-adrenoceptor antagonism, phenylephrine-induced contraction of isolated anococcygeus muscle; conditions: vs phenylephrine, read-out: α1-antagonism (pA2 vs phenylephrine) (converted)
T2 sequence (P43140 1-466): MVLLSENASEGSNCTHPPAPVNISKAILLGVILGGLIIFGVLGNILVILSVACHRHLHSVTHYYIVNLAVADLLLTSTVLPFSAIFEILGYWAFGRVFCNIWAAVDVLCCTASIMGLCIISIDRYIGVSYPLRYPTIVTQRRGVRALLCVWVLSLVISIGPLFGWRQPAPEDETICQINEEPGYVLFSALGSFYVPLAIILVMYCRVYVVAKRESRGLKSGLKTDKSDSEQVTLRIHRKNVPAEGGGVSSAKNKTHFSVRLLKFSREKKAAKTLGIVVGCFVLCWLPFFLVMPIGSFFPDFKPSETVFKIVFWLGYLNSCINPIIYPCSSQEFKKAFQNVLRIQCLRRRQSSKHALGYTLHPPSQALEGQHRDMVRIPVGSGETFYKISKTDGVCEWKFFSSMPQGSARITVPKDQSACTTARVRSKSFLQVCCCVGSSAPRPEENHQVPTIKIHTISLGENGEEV
Method: 2. α1 -adrenoceptor antagonism
To obtain information also on the selectivity of the antagonist between α1 - and α2 -receptors, its ability to inhibit α1 -receptors was determined by means of isolated anococcygeus muscle (rat). The reference substances were now phenylephrine, a known α1 -agonist, and prazosin, a known α1 -antagonist. To determine α1 -antagonism, muscular contraction was induced by phenylephrine and the pA2 value of the studied compound was determined (Arunlakshana & Schild, Br. J. Pharmacol. 14, 48-62, 1959).

[3] = system: isolated rat pancreas (postsynaptic α2-adrenoceptors); experiment: Potentiation of insulin release from isolated perfused pancreas; design: species or system rat (Sprague-Dawley); conditions: 1 × 10^-6 M, 11 mM glucose; for Insulin in the perfusate, -5 min: before compound addition
Method: 3. Potentiation of insulin release from isolated pancreas
Samples for determination of insulin concentration in the perfusate were collected before and during 30 min after adding the studied compounds+glucose. Insulin was measured by a RIA-kit (NOVO).

Row | SMILES | Duration of α2-antagonism (α2-adrenoceptor [1]) | α2-antagonism (ED50 vs detomidine) (α2-adrenoceptor [2]; i.v.) | Kb (α1-adrenoceptor) | ED50 (α2-adrenoceptor [2]) | Insulin in the perfusate, +1 min [3] | Insulin in the perfusate, +10 min [3] | Insulin in the perfusate, +20 min [3] | Insulin in the perfusate, +30 min [3] | Insulin in the perfusate, -5 min [3]
1 | c1ccc2c(c1)OCC(C1=NCCN1)O2 (stereo not drawn) [idazoxan, reference compound] | < 1 h | 0.02 mg/kg | 5.01 µM | – | – | – | – | – | –
2 | OCC1(c2c[nH]cn2)Cc2ccccc2C1 [compound 6, [2,3-dihydro-2-(1H-imidazol-4-yl)-1H-inden-2-yl]methanol] | – | – | > 10 µM | 0.2 mg/kg | – | – | – | – | –
3 | CCn1cnc(C2(CC)Cc3ccccc3C2=O)c1 (stereo not drawn) [compound 12, 2-ethyl-2-(1-ethyl-1H-imidazol-4-yl)-1-indanone] | 16.0 h | – | > 10 µM | 0.2 mg/kg | – | – | – | – | –
4 | CCCC1(c2cn(CC)cn2)Cc2ccccc2C1 [compound 8, 1-ethyl-4-(2,3-dihydro-2-n-propyl-1H-inden-2-yl)-1H-imidazole] | – | – | > 10 µM | 0.3 mg/kg | – | – | – | – | –
5 | COCC1(c2cn(C)cn2)Cc2ccccc2C1 [compound 7, 4-(2,3-dihydro-2-methoxymethyl-1H-inden-2-yl)-1-methyl-1H-imidazole] | 7.0 h | – | > 10 µM | 0.3 mg/kg | 26.0 ng/mL | 11.5 ng/mL | 15.9 ng/mL | 22.0 ng/mL | < 0.1 ng/mL
6 | CCn1cnc(C2(COC)Cc3ccccc3C2)c1 [compound 11, 1-ethyl-4-(2,3-dihydro-2-methoxymethyl-1H-inden-2-yl)-1H-imidazole] | 7.0 h | – | > 10 µM | 0.1 mg/kg | – | – | – | – | –
7 | CCn1cnc(C2(CC)Cc3ccccc3C2)c1 [compound 2, 1-ethyl-4-(2-ethyl-2,3-dihydro-1H-inden-2-yl)-1H-imidazole] | – | – | 6.31 µM | 0.2 mg/kg | – | – | – | – | –
8 | CCC1(c2cnc[nH]2)Cc2ccccc2C1 [atipamezole, reference compound] | 1.0 h | – | > 10 µM | – | 5.0 ng/mL | 3.0 ng/mL | 6.3 ng/mL | 15.1 ng/mL | < 0.1 ng/mL
9 | CCCC1(c2cn(C)cn2)Cc2ccccc2C1 [compound 9, 4-(2,3-dihydro-2-n-propyl-1H-inden-2-yl)-1-methyl-1H-imidazole] | – | – | > 10 µM | 0.3 mg/kg | – | – | – | – | –
10 | CCC1(c2cn(C)cn2)Cc2ccccc2C1=O (stereo not drawn) [compound 5, 2-ethyl-2-(1-methyl-1H-imidazol-4-yl)-1-indanone] | 11.0 h | – | > 10 µM | 0.1 mg/kg | – | – | – | – | –
11 | CCC1(c2cn(C)cn2)Cc2ccccc2C1 [compound 1, 4-(2-ethyl-2,3-dihydro-1H-inden-2-yl)-1-methyl-1H-imidazole] | 2.0 h | – | 7.94 µM | 0.3 mg/kg | – | – | – | – | –
12 | CCC1(c2cn(Cc3ccccc3)cn2)Cc2ccccc2C1 [compound 4, 1-benzyl-4-(2-ethyl-2,3-dihydro-1H-inden-2-yl)-1H-imidazole] | – | – | 1 µM | 2 mg/kg | – | – | – | – | –
13 | CCCn1cnc(C2(CC)Cc3ccccc3C2)c1 [compound 3, 4-(2-ethyl-2,3-dihydro-1H-inden-2-yl)-1-n-propyl-1H-imidazole] | – | – | 6.31 µM | 0.3 mg/kg | – | – | – | – | –
14 | CCn1cnc(C2(CO)Cc3ccccc3C2)c1 [compound 10, [2-(1-ethyl-1H-imidazol-4-yl)-2,3-dihydro-1H-inden-2-yl]methanol] | 7.0 h | – | > 10 µM | 0.3 mg/kg | – | – | – | – | –
